Counter-ions that a name gives are not always drawn.
Experiments:
[1] = test system: spontaneous hypertensive male rats (SHR); assay: Efficacy in Diabetic Model: Determination of Blood Sugar Level, non-diabetic SHR; format: in vivo, rat; settings: for Blood Sugar Level: SHR (n = 8), mean ± S.E.
Experimental: (§1) 5-Week old spontaneous hypertensive male rats (SHR), available from Nippon Charles River, were used. Streptozotocin (STZ) was dissolved in a 0.1M citrate buffer solution (pH 4.5) and injected into the tail vein of the rats at a dose level of 50 mg/kg to prepare diabetic rats. For control, rats received 1 ml/kg of the citrate buffer solution alone through administration to the tail vein. After one week from the STZ administration, blood was taken from the tail vein of the unanesthetized rats, and the blood sugar level was determined. Those rats having a blood sugar level of 300 mg/dl or higher were used as diabetic rats.
(§2) 6-(1-Imidazolylmethyl)-5,6,7,8-tetrahydronaphthalene- 2-carboxylic acid hydrochloride hemihydrate (hereinafter referred to as Compound A) was dissolved in distilled water and administered orally to the test animals at a dose level of 1 mg/kg/day or 10 mg/kg/day for 5 consecutive months from one week after the administration of STZ or a citrate buffer solution.
(§3) Just before the administration of Compound A, blood was sampled from the tail vein of the rats without any restriction of diet to determine the blood sugar level using a commercial glucose assay kit (Trade name: New Blood Sugar Test, produced by Boehringer Mannheim Co., Ltd., West Germany). The results are shown in Table 1, expressed as mean ±S.E.

diabetic SHR = assay: Determination of Glucose Tolerance in diabetic SHR; format: in vivo, rat; settings: for Blood Sugar Level (Effect on Glucose Tolerance): 3 months
Experimental: as §1, §2
After 3 months from the start of the administration of Compound A, the rats were fasted for 18 hours. Glucose was administered orally to the rats at a dose level of 2 g/kg. Blood was sampled from the tail vein of the rats just before the administration of glucose and at 1 hour and 2 hours after the administration to determine the blood sugar lever using the above method. The result was shown in Table 2, expressed as mean +S.E.

[2] = test system: streptozotocin-induced diabetic spontaneous hypertensive rats; assay: Efficacy in Diabetic Model: Determination of Blood Sugar Level, STZ-induced diabetic SHR; format: in vivo, rat; settings: for Blood Sugar Level: Diabetic SHR (n = 7), mean ± S.E.
Experimental: as §1, §2, §3

Acute Toxicity in Rats = settings: rat, in vivo
Text: Acute toxicities of Compound A in rats through oral administration or intravenous injection were as follows.

[3] = 1 mg/kg/day p.o., 0 weeks (before administration)
[4] = 10 mg/kg/day p.o., 0 weeks (before administration)

For O=C(O)c1ccc2c(c1)CCC(Cn1ccnc1)C2 (centres unmarked) [Compound A, 6-(1-Imidazolylmethyl)-5,6,7,8-tetrahydronaphthalene-2-carboxylic acid hydrochloride hemihydrate], the “Blood Sugar Level” value [1, 3] was 100.7 mg/dL, the “Blood Sugar Level” value ([1]; 1 mg/kg/day p.o., 2 weeks) was 95.4 mg/dL and the “Blood Sugar Level” value ([1]; 1 mg/kg/day p.o., 8 weeks) was 94.5 mg/dL. The “Blood Sugar Level” value [1, 4] was 108.0 mg/dL, the “Blood Sugar Level” value ([1]; 10 mg/kg/day p.o., 2 weeks) was 90.9 mg/dL and the “Blood Sugar Level” value ([1]; 10 mg/kg/day p.o., 8 weeks) was 93.2 mg/dL. The “effect on blood sugar level in SHR” value ([1]; non-diabetic SHR) was “not affected”, the “Blood Sugar Level (Effect on Glucose Tolerance)” value (diabetic SHR; 1 mg/kg/day p.o. (n = 7), 1 hour after glucose load (2 g/kg p.o.), control 329.5) was 255.4 mg/dL and the “Blood Sugar Level (Effect on Glucose Tolerance)” value (diabetic SHR; 1 mg/kg/day p.o. (n = 7), 2 hours after glucose load (2 g/kg p.o.), control 280.8) was 167.3 mg/dL. The “Blood Sugar Level (Effect on Glucose Tolerance)” value (diabetic SHR; 1 mg/kg/day p.o. (n = 7), just before the glucose load (2 g/kg p.o.), control 178.5) was 136.8 mg/dL, the “Blood Sugar Level (Effect on Glucose Tolerance)” value (diabetic SHR; 10 mg/kg/day p.o. (n = 8), 1 hour after glucose load (2 g/kg p.o.), control 329.5, *P < 0.05 vs control) was 202.4 mg/dL and the “Blood Sugar Level (Effect on Glucose Tolerance)” value (diabetic SHR; 10 mg/kg/day p.o. (n = 8), 2 hours after glucose load (2 g/kg p.o.), control 280.8) was 137.1 mg/dL. The “Blood Sugar Level (Effect on Glucose Tolerance)” value (diabetic SHR; 10 mg/kg/day p.o. (n = 8), just before the glucose load (2 g/kg p.o.), control 178.5) was 105.1 mg/dL, the “glucose tolerance in the diabetic SHR” value (diabetic SHR; rat, in vivo) was “improved the glucose tolerance” and the “effect on blood sugar level of diabetic SHR” value ([2]; 8 weeks after the start of administration) was “significantly lowered the blood sugar level”. The “Blood Sugar Level” value [2, 3] was 374.6 mg/dL, the “Blood Sugar Level” value ([2]; 1 mg/kg/day p.o., 2 weeks, control 481.5) was 406.3 mg/dL and the “Blood Sugar Level” value ([2]; 1 mg/kg/day p.o., 8 weeks, control 544.2) was 445.0 mg/dL. For the same molecule, the “Blood Sugar Level” value [2, 4] was 361.4 mg/dL, the “Blood Sugar Level” value ([2]; 10 mg/kg/day p.o., 2 weeks, control 481.5, *P < 0.05 vs control) was 365.2 mg/dL and the “Blood Sugar Level” value ([2]; 10 mg/kg/day p.o., 8 weeks, control 544.2, **P < 0.01 vs control) was 277.3 mg/dL. For the same molecule, the “effect on high blood sugar level of diabetic SHR” value ([2]; from 2 weeks after the start of administration) was “tendency to lower the high blood sugar level”, the LD50 (Acute Toxicity in Rats; iv, female rats) was 783 mg/kg and the LD50 (Acute Toxicity in Rats; iv, male rats) was 807 mg/kg. The LD50 (Acute Toxicity in Rats; po, female rats) was 1990 mg/kg and the LD50 (Acute Toxicity in Rats; po, male rats) was 2440 mg/kg.

Source: patent US4942171A, “The compound, 6-(1-imidazolyl methyl)-5,6,7,8-tetrahydronaphthalene-2-carboxylic acid and salts thereof having antidiabetic activity” (Daiichi Seiyaku Co., Ltd., priority 1987, dated 1990)
